{
  "source": "patent US10758517B2",
  "about": "“mPGES-1 inhibitor for the treatment of osteoarthritis pain” (Glenmark Pharmaceuticals S.A., priority 2017, dated 2020)",
  "key": {"LPS-induced PGE2 release": {"system": "LPS-induced PGE2 release", "test": "Ex vivo LPS-induced PGE2 release in whole blood, single dose crossover versus celecoxib (Example 1, Part 3)", "design": "species or system human", "description": "Part 2 was a single-dose, double-blind study in a single cohort of elderly subjects. Part 3 was an open-label, randomized, 2-period, single-dose, crossover study to compare effects of the highest tolerated Compound I dose and celecoxib on prostanoid metabolism in healthy adult subjects.\nIn Part 3, Compound I was administered at a dose of 1000 mg after fasting. All subjects received Compound I and all subjects received 400 mg celecoxib in a cross-over study design.\nIn Parts 1a and 3, whole blood samples were incubated and analyzed for lipopolysaccharide (LPS)-induced prostaglandin PGE2 release. In Part 3, urine samples were collected for analysis of prostanoid metabolites.\n(§1) Summary statistics were presented for the PK, pharmacodynamic (PD) and safety data, as appropriate. PK parameters following single oral doses of Compound I were determined from the plasma concentrations of Compound I using non-compartmental procedures in WinNonlin Dose proportionality was assessed using a power model, with tmax analyzed using the Kruskal-Wallis test. The effect of food on PK was assessed at the 100 and 250 mg doses using a mixed effects model. The effect of age on PK was assessed for elderly (>65 years) versus non-elderly (<65 years) at the 250 mg dose level in Parts 1a and 2, using an analysis of variance (ANOVA) with age as a fixed effect. For PD analyses, percent decrease of ex vivo LPS-induced PGE2 release was calculated. For Part 3, urinary excretion of prostanoid metabolites was also evaluated. The data are presented as absolute, as well as creatinine normalized urinary biomarker amounts, along percent change from baseline over a definite time interval. The percent change from baseline in urinary biomarkers was assessed using an analysis of covariance (ANCOVA) model\nPercent change in ex vivo LPS-induced PGE2 release in whole blood is the pharmacodynamic (PD) biomarker. The PGE2 levels in whole blood were estimated using the homogeneous time-resolved fluorescence method.\nConcentrations below the limit of quantification were treated as ½ the lower limit of quantification for calculation.\nTime points where unstimulated prostaglandin E2 (PGE2) concentration was more than 3 times greater than the mean unstimulated PGE2 and equal to or greater than ½ baseline value for an individual subject were not included in the calculation of % inhibition."}, "[1]": {"test": "Plasma pharmacokinetics after single oral doses (Example 1)", "format": "in vivo, human", "settings": "for dose proportionality of exposure: single oral doses", "description": "In Part 1a, single doses of Compound I of 10 mg (Group A), 30 mg (Group B), 100 mg (Group C), 250 mg (Group D), 500 mg (Group E) and 1000 mg (Group F) were administered after fasting. In each dose group, 6 subjects received Compound I and 2 subjects received placebo.\nIn Part 2, a dose of 250 mg was administered after fasting. 6 subjects received Compound I and 2 subjects received placebo.\nBlood and urine samples for the analysis of plasma and urinary concentrations of Compound I.\nas §1"}, "[2]": {"settings": "Compound I 1000 mg versus celecoxib 400 mg, single oral doses, fasted"}, "[3]": {"settings": "single oral dose 1000 mg, fasted healthy subjects"}},
  "data": [
    {"smiles": "CC(C)(C)C(=O)NCc1ccc(Cl)c(-c2nn(-c3ccc(C(F)(F)F)cc3)c(=O)[nH]2)c1", "note": "[Compound I, N-(4-chloro-3-(5-oxo-1-(4-(trifluoromethyl)phenyl)-4,5-dihydro-1H-1,2,4-triazol-3-yl)benzyl)pivalamide]", "values": [
      {"measurement": "EAUC0-24 h, Difference in LS mean versus celecoxib", "setting": "LPS-induced PGE2 release; [2]", "result": 7.89, "unit": "% · h"},
      {"measurement": "EAUC0-336 h, Difference in LS mean versus celecoxib", "setting": "LPS-induced PGE2 release; [2]", "result": 19024, "unit": "% · h"},
      {"measurement": "ETmax, Median difference versus celecoxib", "setting": "LPS-induced PGE2 release; [2]", "result": 6.00, "unit": "h"},
      {"measurement": "Epeak, Difference in LS mean versus celecoxib", "setting": "LPS-induced PGE2 release; [2]", "result": "−1.87", "unit": "%"},
      {"measurement": "EAUC0-24 h, LS mean", "setting": "LPS-induced PGE2 release; [3]", "result": 1428, "unit": "% · h"},
      {"measurement": "EAUC0-336 h, LS mean", "setting": "LPS-induced PGE2 release; [3]", "result": 8866, "unit": "% · h"},
      {"measurement": "ETmax (time to reach maximum effect), Median", "setting": "LPS-induced PGE2 release; [3]", "result": 12.0, "unit": "h"},
      {"measurement": "Epeak (maximum % inhibition), LS mean", "setting": "LPS-induced PGE2 release; [3]", "result": 87.2, "unit": "%"},
      {"measurement": "inhibition of LPS-induced PGE2 concentration", "setting": "LPS-induced PGE2 release; single oral dose 1000 mg, maintained for at least 168 hours post-dose", "result": "approximately 50%"},
      {"measurement": "dose proportionality of exposure", "setting": "[1]; 10 to 250 mg dose range", "result": "Near proportional increases"},
      {"measurement": "pharmacokinetic differences in elderly subjects", "setting": "[1]; elderly subjects, single dose 250 mg", "result": "No notable pharmacokinetic differences"},
      {"measurement": "dose proportionality of exposure", "setting": "[1]; higher doses (250 to 1000 mg)", "result": "sub-proportional increases"},
      {"measurement": "half-life", "setting": "[1]; human, plasma, single oral doses 10 to 1000 mg, independent of dose, read-out: mean T1/2", "result": "41.7 to 54.5", "unit": "h"},
      {"measurement": "Tmax", "setting": "[1]; human, plasma, single oral doses of 10 and 30 mg, read-out: median Tmax", "result": 2, "unit": "h"}
    ]}
  ]
}
